Test results as given in PMC7896091, “Synthesis of novel phytol-derived γ-butyrolactones and evaluation of their biological activity” (Scientific Reports, 2021).

How the values were obtained:
albino mice = system: albino mice; parameters: method as in PMID 20141879; conditions: cited from earlier work
rats = system: rats; parameters: method as in PMID 20141879; conditions: cited from earlier work
[1] = system: caspase-3/7 in MV4-11 cells; assay: Caspase-3/7 activity determination (Ac-DEVD-ACC substrate); type: cell-based, human; conditions: MV4-11, 75 µM, 72 h
Procedure: Caspase-3/7 activity determination was performed according to the protocol previously described. The MV4-11 cells were seeded at the density of 1 × 10^5 cells/mL of culture medium on 24-well plates (Sarstedt, Germany) to the final volume of 2 mL. The cells were exposed to the test compounds at concentrations 75 μM or campthothecin (0.05 μg/mL) as a positive control, for 72 h. After 72 h of the incubation, the cells were collected and centrifuged (5 min., 4 °C, 250×g). Cells were suspended in 50 µL of ice-cold lysis buffer (50 mM HEPES, 10% (w/v) sucrose, 150 mM NaCl, 2 mM EDTA, 1% (v/v) Triton X-100, pH 7.3, IIET, Poland) and incubated 30 min. at 4 °C. After the incubation, 40 µL of each sample was transferred to a white, 96-well plate (Corning, USA) containing 160 µL of the reaction buffer (20 mM HEPES, 10% sucrose, 100 mM NaCl, 1 mM EDTA, 10 mM DTT, 0.02% Trition X-100, pH 7.3) (IIET, Wroclaw, Poland) with 9 µM Ac-DEVD-ACC fluorogenic substrate (λex = 360 nm, λem = 460 nm). The fluorescence increase correlated with the caspase-3/7 level was continuously recorded at 37 °C for 120 min using a Biotek Synergy H4 (Biokom, Warsaw, Poland). Compounds were tested in duplicates in single experiment and each experiment was repeated at least three times independently. Results were normalized to the number of cells in each well and are reported as mean relative caspase-3/7 activity compared to untreated control sample ± SD.

Molecule | Lethal dose (LD50) (albino mice) | Lethal dose (LD50) (rats) | Increase of caspase-3/7 activity compared to the control [1]
3,7,11,15-tetramethylhexadec-2-en-1-ol [Phytol (1), reference compound] | above 5 g/kg | > 10000 mg/kg | –
CC(C)CCCC(C)CCCC(C)CCC[C@]1(C)CC(=O)O[C@@H]1CCl (stereo in doubt) [compound 6, trans-5-Chloromethyl-4-methyl-4-(4′,8′,12′-trimethyltridecyl)dihydrofuran-2-one] | – | – | about 1.5 times
C=CC(C)(CCCC(C)CCCC(C)CCCC(C)C)CC(=O)O (stereo not shown) [compound 3, 3,7,11,15-tetramethyl-3-vinylhexadecanoic acid] | – | – | 3 times
